Test results as given in patent US20110230476A1, “PI3 KINASE INHIBITORS AND USES THEREOF” (AVILA THERAPEUTICS, INC., priority 2009, published 2011).

Assays:
PI3Kα (p110α/p85α) = molecular target: T1, PI3Kα (p110α/p85α) (Homo sapiens, UniProt P42336); experiment: HTRF assay, potency against active PI3Kα; format: biochemical; settings: HTRF; [ATP]=50 μM, [di-C8-PIP2]=10 μM; 30 min pre-incubation; read-out: PI3Kα Inhibition
T1 construct: purchased BPS Bioscience (San Diego, Calif.) or Millipore (Billerica, Mass.)
Outline: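 Active p110/p85α lipid kinase reactions were started with ATP and run 30-60 minutes at 25 °C, then stopped and developed with HTRF detection mix. HTRF ratio converted to % inhibition against ±enzyme controls; IC50 from log[inhibitor] vs response, variable slope.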

SKOV3 cells = experiment: GI50 determinations in SKOV3 cells; format: cell-based; settings: Homo sapiens, SK-OV-3; SKOV3 cells, 96 hours, Cell Titer Glo
Protocol: GI50 Determinations in SKOV3 Cells
A standard curve ranging from 10,000 to 50,000 cells was set up in a separate plate and allowed to adhere to the plate for 4-6 hours, at which time the plate was developed using Cell Titer-Glow (Promega, Madison, Wis.) according to manufacturer's instructions.
The next morning, 3-fold compound dilutions ranging from 10,000 nM to 40 nM were prepared in Proliferation Media containing 1% DMSO. 20 ul of each dilution was added to the SKOV3 cells plated the previous day resulting in a dose response curve from 1000 nM to 4 nM. The cells were incubated for 96 hours and then developed with Cell Titer Glo.
The cell numbers at the end of the assay were determined using the standard curve generated at the start of the assay. Growth inhibition was calculated using the following formulas and GI50s were determined by plotting the % growth inhibition vs. Log compound concentration in GraphPad.
%growth=100×(T−T0)/(C−T0)
T=Cell Number at end of assay T0=Cell Number at start of assay (5000) C=Number of cells in DMSO controls at end of assay
%growth inhibition=100−%growth

Phospho-Akt(Ser473) = experiment: Dose response in SKOV3 cells as determined by in-cell Western; format: cell-based; settings: Homo sapiens, SK-OV-3; SKOV3 cells, 1 hr; read-out: pAKT Inhibition in cell Western
Outline: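 SKOV3 cells treated with compound for 1 hr, then formaldehyde-fixed, permeabilised and stained overnight for phospho-Akt(Ser473) with anti-tubulin as a reference. Infrared secondary antibodies read at 680 and 800 nm channels by in-cell Western imaging.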

PI3Kα [1] = molecular target: T2, PI3Kα (Homo sapiens, UniProt P42336); experiment: Mass spectrometry of intact PI3Kα (Millipore, 14-602), 1 hr incubation; format: binding; design: purchased Millipore 14-602; settings: 10× fold excess of compound, MALDI
Protocol: (§1) Mass Spectrometry for PI3K
Aliquots (5 μl) of the samples were diluted with 15 μl of 0.2% TFA prior to micro C4 ZipTipping directly onto the MALDI target using Sinapinic acid as the desorption matrix (10 mg/ml in 0.1% TFA:Acetonitrile 50:50).
Target sequence in this assay (P42336 whole entry): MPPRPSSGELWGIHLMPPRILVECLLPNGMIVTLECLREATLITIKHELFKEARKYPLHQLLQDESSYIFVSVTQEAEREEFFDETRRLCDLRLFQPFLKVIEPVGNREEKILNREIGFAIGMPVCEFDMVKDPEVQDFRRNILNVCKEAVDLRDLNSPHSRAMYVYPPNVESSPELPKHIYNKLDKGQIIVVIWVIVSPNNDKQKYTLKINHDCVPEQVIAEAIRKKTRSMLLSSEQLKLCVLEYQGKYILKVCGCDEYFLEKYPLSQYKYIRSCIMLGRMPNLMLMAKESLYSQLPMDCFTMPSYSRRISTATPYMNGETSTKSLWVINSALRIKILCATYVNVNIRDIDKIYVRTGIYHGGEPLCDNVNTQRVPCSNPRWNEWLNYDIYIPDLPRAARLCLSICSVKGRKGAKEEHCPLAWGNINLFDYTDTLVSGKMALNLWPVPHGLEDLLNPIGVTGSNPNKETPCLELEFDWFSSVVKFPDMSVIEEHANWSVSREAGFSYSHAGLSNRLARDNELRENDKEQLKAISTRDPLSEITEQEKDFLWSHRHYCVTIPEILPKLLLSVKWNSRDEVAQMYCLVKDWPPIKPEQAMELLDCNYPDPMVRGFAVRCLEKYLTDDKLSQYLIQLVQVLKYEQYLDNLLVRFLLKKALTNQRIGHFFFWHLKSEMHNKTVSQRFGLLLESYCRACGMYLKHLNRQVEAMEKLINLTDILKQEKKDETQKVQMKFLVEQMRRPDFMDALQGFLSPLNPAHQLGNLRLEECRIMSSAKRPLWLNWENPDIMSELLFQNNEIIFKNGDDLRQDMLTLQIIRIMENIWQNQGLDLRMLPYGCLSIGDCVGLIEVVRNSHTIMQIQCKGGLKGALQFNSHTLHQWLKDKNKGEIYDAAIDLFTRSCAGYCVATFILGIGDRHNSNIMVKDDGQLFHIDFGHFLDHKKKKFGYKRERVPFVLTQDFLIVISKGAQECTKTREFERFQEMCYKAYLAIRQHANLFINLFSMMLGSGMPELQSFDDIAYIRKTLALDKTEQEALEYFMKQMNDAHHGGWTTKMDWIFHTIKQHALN
Target sequence in this assay (P27986 whole entry partner): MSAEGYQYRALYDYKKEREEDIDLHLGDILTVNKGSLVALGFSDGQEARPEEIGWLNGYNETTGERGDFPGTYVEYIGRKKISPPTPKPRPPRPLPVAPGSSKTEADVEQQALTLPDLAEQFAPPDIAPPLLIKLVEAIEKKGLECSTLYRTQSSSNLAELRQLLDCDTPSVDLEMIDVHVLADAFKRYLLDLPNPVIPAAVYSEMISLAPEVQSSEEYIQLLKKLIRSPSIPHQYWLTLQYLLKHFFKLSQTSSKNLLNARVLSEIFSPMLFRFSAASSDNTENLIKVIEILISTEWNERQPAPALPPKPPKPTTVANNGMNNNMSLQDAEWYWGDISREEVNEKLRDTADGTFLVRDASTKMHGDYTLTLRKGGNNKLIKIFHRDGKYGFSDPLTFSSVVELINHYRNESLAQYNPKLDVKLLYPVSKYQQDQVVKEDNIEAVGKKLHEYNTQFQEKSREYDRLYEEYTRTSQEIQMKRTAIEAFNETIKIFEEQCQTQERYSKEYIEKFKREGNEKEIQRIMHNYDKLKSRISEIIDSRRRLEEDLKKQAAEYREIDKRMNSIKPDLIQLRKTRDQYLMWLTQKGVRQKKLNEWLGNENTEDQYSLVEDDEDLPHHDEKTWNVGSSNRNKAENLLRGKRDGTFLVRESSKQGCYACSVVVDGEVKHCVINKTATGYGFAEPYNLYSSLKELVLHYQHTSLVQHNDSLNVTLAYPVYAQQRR

PI3Kα [2] = molecular target: T2, PI3Kα; experiment: Mass spectrometry of intact PI3Kα (Johns Hopkins), 3 hr incubation; format: binding; design: Johns Hopkins; settings: 10× fold excess of compound, MALDI
Protocol: as §1
Target sequence in this assay (P42336 whole entry): as the sequence (P42336 whole entry) above
Target sequence in this assay (P27986 322-600 partner limits assumed): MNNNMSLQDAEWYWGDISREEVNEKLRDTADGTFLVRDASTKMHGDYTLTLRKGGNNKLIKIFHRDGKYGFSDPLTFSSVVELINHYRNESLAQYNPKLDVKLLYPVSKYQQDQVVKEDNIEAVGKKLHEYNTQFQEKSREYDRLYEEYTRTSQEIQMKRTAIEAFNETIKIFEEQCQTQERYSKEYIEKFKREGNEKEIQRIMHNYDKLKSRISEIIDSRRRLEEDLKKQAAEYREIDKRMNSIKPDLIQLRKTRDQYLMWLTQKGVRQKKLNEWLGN
Intact PI3Kα (Johns Hopkins) was incubated for 3 hr at a 10× fold excess of II-a-45 or II-a-49 to protein. Aliquots (3 μL) of the samples were diluted with 10 μL of 0.1% TFA prior to micro C4 ZipTipping directly onto the MALDI target using Sinapinic acid as the desorption matrix (10 mg/ml in 0.1% TFA:Acetonitrile 50:50).

PI3Kγ (p120γ) = molecular target: T3, PI3Kγ (p120γ) (Homo sapiens, UniProt P48736); experiment: HTRF assay, potency against active PI3Kγ; format: biochemical; settings: [ATP]=50 μM, [di-C8-PIP2]=10 μM, 30 min pre-incubation, read-out: PI3Kγ Inhibition
T3 construct: purchased BPS Bioscience (San Diego, Calif.) or Millipore (Billerica, Mass.)
Outline: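 End-point competition HTRF: enzyme (p110β/p85α 0.75 nM; p120γ 2-2.5 nM) with 10 μM di-C8-PIP2 pre-incubated 30 min at 25° C with compound, then 50 μM ATP added for 30-60 min at 25° C. Stopped, detected after 1 and 18 h; IC50 from variable-slope fit.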

T1 sequence (P42336 whole entry): as the sequence (P42336 whole entry) above
T1 sequence (P27986 whole entry partner): as the sequence (P27986 whole entry partner) above
T3 sequence (P48736 whole entry): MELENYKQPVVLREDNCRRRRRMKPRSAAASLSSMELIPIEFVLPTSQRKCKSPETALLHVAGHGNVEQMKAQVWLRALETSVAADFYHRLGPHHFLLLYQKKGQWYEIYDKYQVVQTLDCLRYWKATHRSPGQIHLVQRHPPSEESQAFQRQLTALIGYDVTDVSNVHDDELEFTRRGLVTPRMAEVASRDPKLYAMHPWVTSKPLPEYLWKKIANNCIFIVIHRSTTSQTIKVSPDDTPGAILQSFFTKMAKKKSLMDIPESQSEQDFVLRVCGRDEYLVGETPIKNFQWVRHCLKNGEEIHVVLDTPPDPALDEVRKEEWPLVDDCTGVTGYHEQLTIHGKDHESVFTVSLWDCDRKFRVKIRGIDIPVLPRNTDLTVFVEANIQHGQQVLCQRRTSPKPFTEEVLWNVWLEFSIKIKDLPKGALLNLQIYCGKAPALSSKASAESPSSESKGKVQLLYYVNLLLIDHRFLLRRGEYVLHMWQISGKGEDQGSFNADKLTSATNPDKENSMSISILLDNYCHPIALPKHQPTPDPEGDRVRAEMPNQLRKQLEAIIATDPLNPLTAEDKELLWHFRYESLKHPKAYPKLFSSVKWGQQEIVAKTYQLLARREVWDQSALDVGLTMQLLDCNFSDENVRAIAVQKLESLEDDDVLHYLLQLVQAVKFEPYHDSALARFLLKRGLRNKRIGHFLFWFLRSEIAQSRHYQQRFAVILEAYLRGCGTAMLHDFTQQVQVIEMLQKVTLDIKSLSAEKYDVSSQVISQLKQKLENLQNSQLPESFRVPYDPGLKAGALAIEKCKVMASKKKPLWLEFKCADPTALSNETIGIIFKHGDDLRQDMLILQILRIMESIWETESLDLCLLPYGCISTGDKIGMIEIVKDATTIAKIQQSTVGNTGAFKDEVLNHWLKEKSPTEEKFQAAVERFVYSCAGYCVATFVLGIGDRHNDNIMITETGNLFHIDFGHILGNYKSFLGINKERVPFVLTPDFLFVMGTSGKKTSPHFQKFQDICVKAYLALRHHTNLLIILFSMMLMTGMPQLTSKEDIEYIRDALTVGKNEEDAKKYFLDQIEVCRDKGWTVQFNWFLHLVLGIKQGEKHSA

| SMILES | IC50 (PI3Kα (p110α/p85α)) [nM] | GI50 (SKOV3 cells) [nM] | EC50 (Phospho-Akt(Ser473)) [nM] | covalent modification of PI3Kα (PI3Kα [1]) | also measured |
| --- | --- | --- | --- | --- | --- |
| C=CC(=O)Nc1ccc(CC(=O)N2CCC(n3ncc4c(N5CCOCC5)nc(-c5ccc(NC(=O)NC)cc5)nc43)CC2)cc1 [VII-9, N-(4-(2-(4-(6-(4-(3-methylureido)phenyl)-4-morpholino-1H-pyrazolo[3,4-d]pyrimidin-1-yl)piperidin-1-yl)-2-oxoethyl)phenyl)acrylamide] | 100 to 1000 | 100 to 1000 | 100 to 1000 | – | – |
| CNC(=O)Nc1ccc(-c2nc(N3CCOCC3)c3cnn(C4CCN(C(=O)CCC(=O)/C=C/c5ccccc5)CC4)c3n2)cc1 [VII-10, (E)-1-methyl-3-(4-(4-morpholino-1-(1-(4-oxo-6-phenylhex-5-enoyl)piperidin-4-yl)-1H-pyrazolo[3,4-d]pyrimidin-6-yl)phenyl)urea] | 100 to 1000 | 10 to 100 | – | – | – |
| C=CC(=O)Nc1ccc(CC(=O)N2CCN(c3cc(-c4cnc(N)nc4)nc(N4CCOCC4)c3)CC2)cc1 [XII-54] | 100 to 1000 | – | 100 to 1000 | covalent modification | mass shift of PI3Kα (PI3Kα [1]): 542 Da; mass shift of PI3Kα, per cent in brackets (PI3Kα [1]): 103% |
| CNC(=O)Nc1ccc(-c2nc(N3CCOCC3)c3cnn(C4CCN(C(=O)CCCC(=O)/C=C/c5ccccc5)CC4)c3n2)cc1 [VII-11, (E)-1-methyl-3-(4-(4-morpholino-1-(1-(5-oxo-7-phenylhept-6-enoyl)piperidin-4-yl)-1H-pyrazolo[3,4-d]pyrimidin-6-yl)phenyl)urea] | 100 to 1000 | 100 to 1000 | – | – | – |
| C=CC(=O)Nc1ccc(C(=O)NCCOc2ccc3c(c2OC)N=C(NC(=O)c2cccnc2)N2CCN=C32)cc1 [IX-5, N-(8-(2-(4-acrylamidobenzamido)ethoxy)-7-methoxy-2,3-dihydroimidazo[1,2-c]quinazolin-5-yl)nicotinamide] | 10 to 100 | 10 to 100 | – | – | – |
| CC(C)=CC(=O)CCc1ccc(C#Cc2cc(-c3cnc(N)nc3C)nc(N3CCOCC3)c2)cc1 [XII-18, 1-(4-((2-(2-amino-4-methylpyrimidin-5-yl)-6-morpholinopyridin-4-yl)ethynyl)phenyl)-5-methylhex-4-en-3-one] | > 1000 | – | – | similarly modify | – |
| C=CC(=O)Nc1ccc(C(=O)N2CCN(C(=O)c3cc4nc(-c5cccc6[nH]ncc56)nc(N5CCOCC5)c4s3)CC2)cc1 [II-a-143, N-(4-(4-(2-(1H-indazol-4-yl)-4-morpholinothieno[3,2-d]pyrimidine-6-carbonyl)piperazine-1-carbonyl)phenyl)acrylamide] | 100 to 1000 | 100 to 1000 | ≤ 10 | – | – |
| O=C(/C=C/c1ccccn1)CCC(=O)NCC12CCC(c3cc4nc(-c5cccc6[nH]ncc56)nc(N5CCOCC5)c4s3)(CC1)OC2 [II-a-163, (E)-N-((1-(2-(1H-indazol-4-yl)-4-morpholinothieno[3,2-d]pyrimidin-6-yl)-2-oxabicyclo[2.2.2]octan-4-yl)methyl)-4-oxo-6-(pyridin-2-yl)hex-5-enamide] | > 1000 | 100 to 1000 | 10 to 100 | – | – |
| O=C(/C=C(/c1ccccc1)C(F)(F)F)CCC(=O)N1CCN(Cc2cc3nc(-c4cccc5[nH]ncc45)nc(N4CCOCC4)c3s2)CC1 [II-a-158, (Z)-1-(4-((2-(1H-indazol-4-yl)-4-morpholinothieno[3,2-d]pyrimidin-6-yl)methyl)piperazin-1-yl)-7,7,7-trifluoro-6-phenylhept-5-ene-1,4-dione] | 10 to 100 | 100 to 1000 | – | – | – |
| C=CC(=O)Nc1cc(C(=O)N2CC=C(c3cc4nc(-c5cnc(N)nc5)nc(N5CCOCC5)c4s3)CC2)ccc1Cl [II-a-159, N-(5-(4-(2-(2-aminopyrimidin-5-yl)-4-morpholinothieno[3,2-d]pyrimidin-6-yl)-1,2,3,6-tetrahydropyridine-1-carbonyl)-2-chlorophenyl)acrylamide] | 10 to 100 | 100 to 1000 | – | – | – |
| C=CC(=O)Nc1ccc(C(=O)N2CCC(n3ncc4c(N5CCOCC5)nc(-c5ccc(NC(=O)NC)cc5)nc43)CC2)cc1 [VII-8, N-(4-(4-(6-(4-(3-methylureido)phenyl)-4-morpholino-1H-pyrazolo[3,4-d]pyrimidin-1-yl)piperidine-1-carbonyl)phenyl)acrylamide] | 100 to 1000 | 100 to 1000 | 100 to 1000 | – | – |
| C=CC(=O)Nc1ccc(C(=O)N2CCC3(CC2)CN(c2cc(-c4cnc(N)nc4)nc(N4CCOCC4)c2)C3)cc1 [XII-52, N-(4-(2-(2-(2-aminopyrimidin-5-yl)-6-morpholinopyridin-4-yl)-2,7-diazaspiro[3.5]nonane-7-carbonyl)phenyl)acrylamide] | 100 to 1000 | – | 100 to 1000 | similarly modify | – |
| CC(C)/C=C/C(=O)CCC(=O)N1CCN(Cc2cc3nc(-c4cccc5[nH]ncc45)nc(N4CCOCC4)c3s2)CC1 [II-a-54, (E)-1-(4-((2-(1H-indazol-4-yl)-4-morpholinothieno[3,2-d]pyrimidin-6-yl)methyl)piperazin-1-yl)-7-methyloct-5-ene-1,4-dione] | 10 to 100 | – | – | – | covalent modification of PI3Kα (PI3Kα [2]): completely modify; IC50 (PI3Kγ (p120γ)): > 1000 nM |
| C=CC(=O)Nc1ccc(C(=O)N2CC=C(c3cc4nc(-c5cnc(N)nc5)cc(N5CCOCC5)c4s3)CC2)cc1 [II-g-2, N-(4-(4-(5-(2-aminopyrimidin-5-yl)-7-morpholinothieno[3,2-b]pyridin-2-yl)-1,2,3,6-tetrahydropyridine-1-carbonyl)phenyl)acrylamide] | 100 to 1000 | 100 to 1000 | ≤ 10 | – | IC50 (PI3Kγ (p120γ)): 100 to 1000 nM |
| C=CC(=O)Nc1ccc(CC(=O)N2CC=C(c3cc(-c4cnc(N)nc4)nc(N4CCOCC4)c3)CC2)cc1 [XII-51, N-(4-(2-(4-(2-(2-aminopyrimidin-5-yl)-6-morpholinopyridin-4-yl)-5,6-dihydropyridin-1(2H)-yl)-2-oxoethyl)phenyl)acrylamide] | 10 to 100 | – | 10 to 100 | similarly modify | – |
| C=C(CC)C(=O)CCC(=O)N1CCN(Cc2cc3nc(-c4cccc5[nH]ncc45)nc(N4CCOCC4)c3s2)CC1 [II-a-86, 1-(4-((2-(1H-indazol-4-yl)-4-morpholinothieno[3,2-d]pyrimidin-6-yl)methyl)piperazin-1-yl)-5-methyleneheptane-1,4-dione] | 10 to 100 | 10 to 100 | ≤ 10 | – | – |
| CC(C)=CC(=O)CCC(=O)N1CC2(CCN(c3cc(-c4cnc(N)nc4)nc(N4CCOCC4)c3)CC2)C1 [XII-42, 1-(7-(2-(2-aminopyrimidin-5-yl)-6-morpholinopyridin-4-yl)-2,7-diazaspiro[3.5]nonan-2-yl)-6-methylhept-5-ene-1,4-dione] | > 1000 | – | 100 to 1000 | similarly modify | – |
| CC(C)=CC(=O)c1ccc(CCNC(=O)c2cc(-c3cnc(N)nc3C)nc(N3CCOCC3)c2)cc1 [XII-15, 2-(2-amino-4-methylpyrimidin-5-yl)-N-(4-(3-methylbut-2-enoyl)phenethyl)-6-morpholinoisonicotinamide] | 100 to 1000 | – | – | similarly modify | – |
